# Experimental data taken from US8415469B2, “Compounds and methods for kinase modulation, and indications therefor” (Plexxikon Inc., priority 2005, dated 2013).
# What was measured:
# Assay type in all cases: biochemical
# B-Raf V600E = molecular target: T1, B-Raf V600E (Homo sapiens, UniProt P15056, V600E); experiment: AlphaScreen kinase assay, B-Raf V600E; settings: read-out: IC50, activity toward kinase B-Raf V600E
# T1 construct: P4254. pFastBacBD-CDC37 BRAF D437-K722-X, V600E; His6 with pFastBac HT leader (TEV site) (N); made in house; host or cells: Sf9 (baculovirus; chaperone CDC37 co-expressed)
# T1 sequence (P15056 with tags, fused parts or gaps V600E): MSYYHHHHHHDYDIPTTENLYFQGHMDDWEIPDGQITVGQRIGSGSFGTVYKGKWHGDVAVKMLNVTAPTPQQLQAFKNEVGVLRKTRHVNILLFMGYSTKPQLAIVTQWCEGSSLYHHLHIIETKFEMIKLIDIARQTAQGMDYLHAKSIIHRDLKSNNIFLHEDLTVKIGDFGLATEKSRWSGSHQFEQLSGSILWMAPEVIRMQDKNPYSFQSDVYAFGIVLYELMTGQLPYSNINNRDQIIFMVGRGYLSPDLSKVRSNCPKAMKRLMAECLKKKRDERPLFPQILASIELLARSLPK
# Stk6 = molecular target: T2, Stk6 (Homo sapiens, UniProt O14965); experiment: Z'-Lyte FRET kinase assay (Invitrogen), Stk6; settings: read-out: IC50, activity toward kinase Stk6
# T2 construct: purchased Invitrogen (Carlsbad, Calif.), screening service
# T2 sequence (O14965 1-403): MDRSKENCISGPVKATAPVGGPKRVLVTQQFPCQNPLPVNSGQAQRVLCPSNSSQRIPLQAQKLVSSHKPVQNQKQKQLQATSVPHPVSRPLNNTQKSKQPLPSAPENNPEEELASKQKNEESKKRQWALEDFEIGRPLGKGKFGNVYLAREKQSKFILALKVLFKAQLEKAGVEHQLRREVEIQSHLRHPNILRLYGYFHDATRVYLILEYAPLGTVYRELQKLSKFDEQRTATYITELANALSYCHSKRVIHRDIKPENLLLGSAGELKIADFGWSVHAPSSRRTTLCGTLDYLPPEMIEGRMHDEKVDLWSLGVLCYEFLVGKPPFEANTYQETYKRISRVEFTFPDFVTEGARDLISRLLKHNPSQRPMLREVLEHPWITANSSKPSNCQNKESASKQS
# B-Raf = molecular target: T3, B-Raf (Homo sapiens, UniProt P15056); experiment: AlphaScreen kinase assay, B-Raf; settings: read-out: IC50, activity toward kinase B-Raf
# T3 construct: purchased Upstate Biotechnology
# T3 sequence (P15056 whole entry): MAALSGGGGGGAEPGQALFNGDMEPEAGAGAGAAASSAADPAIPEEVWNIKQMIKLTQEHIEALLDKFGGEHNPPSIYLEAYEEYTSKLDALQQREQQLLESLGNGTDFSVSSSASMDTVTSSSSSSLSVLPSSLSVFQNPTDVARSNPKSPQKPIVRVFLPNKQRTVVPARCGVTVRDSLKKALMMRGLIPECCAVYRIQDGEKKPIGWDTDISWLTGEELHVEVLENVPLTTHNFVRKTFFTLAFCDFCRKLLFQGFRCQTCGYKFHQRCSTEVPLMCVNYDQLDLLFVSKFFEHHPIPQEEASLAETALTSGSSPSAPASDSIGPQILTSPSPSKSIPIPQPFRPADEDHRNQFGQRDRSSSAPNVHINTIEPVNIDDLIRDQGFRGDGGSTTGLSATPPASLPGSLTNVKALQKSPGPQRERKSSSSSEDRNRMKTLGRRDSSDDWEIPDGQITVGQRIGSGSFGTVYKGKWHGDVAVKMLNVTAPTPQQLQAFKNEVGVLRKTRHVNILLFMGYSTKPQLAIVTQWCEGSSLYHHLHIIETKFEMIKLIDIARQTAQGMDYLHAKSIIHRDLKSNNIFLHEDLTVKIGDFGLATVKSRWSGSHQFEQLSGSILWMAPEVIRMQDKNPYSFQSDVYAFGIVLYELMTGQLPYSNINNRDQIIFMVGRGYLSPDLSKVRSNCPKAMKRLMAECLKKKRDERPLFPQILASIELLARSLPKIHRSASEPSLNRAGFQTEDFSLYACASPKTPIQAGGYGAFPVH
# c-Raf-1 = molecular target: T4, c-Raf-1 (Homo sapiens, UniProt P04049); experiment: AlphaScreen kinase assay, c-Raf-1; settings: read-out: IC50, activity toward kinase c-Raf-1
# T4 construct: purchased Upstate Biotechnology
# T4 sequence (P04049 whole entry): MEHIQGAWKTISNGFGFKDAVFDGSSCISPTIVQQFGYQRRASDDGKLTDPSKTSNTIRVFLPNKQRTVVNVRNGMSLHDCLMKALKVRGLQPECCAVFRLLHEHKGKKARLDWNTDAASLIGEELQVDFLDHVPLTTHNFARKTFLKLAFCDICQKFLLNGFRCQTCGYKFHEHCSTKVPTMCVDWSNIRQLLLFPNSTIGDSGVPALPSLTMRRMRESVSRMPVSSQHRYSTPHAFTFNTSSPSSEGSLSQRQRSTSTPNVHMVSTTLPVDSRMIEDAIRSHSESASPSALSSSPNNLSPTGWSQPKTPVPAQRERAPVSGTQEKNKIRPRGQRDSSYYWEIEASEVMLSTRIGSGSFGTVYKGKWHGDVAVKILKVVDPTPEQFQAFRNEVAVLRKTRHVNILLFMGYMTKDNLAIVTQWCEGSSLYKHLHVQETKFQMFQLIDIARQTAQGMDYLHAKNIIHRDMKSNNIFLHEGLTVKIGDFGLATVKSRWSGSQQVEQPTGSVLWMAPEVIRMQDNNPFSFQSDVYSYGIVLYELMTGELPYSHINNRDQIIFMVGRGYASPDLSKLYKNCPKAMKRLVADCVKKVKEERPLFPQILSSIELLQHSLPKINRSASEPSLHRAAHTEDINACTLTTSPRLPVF
# Source text: (§1) AlphaScreen assay was used to screen additional kinases. The assay is similarly dependent on the phosphorylation of a peptide substrate. In this assay, an antibody that recognizes phosphorylated substrate is bound to an acceptor bead. The peptide substrate is attached to biotin, which binds to a donor head that contains streptavidin. Thus phosphorylated substrate is bound by antibody and streptavidin, bringing the donor and acceptor heads into close proximity when kinase is not inhibited. The donor produces singlet oxygen which results in emission from the acceptor when they are in close proximity. Conversely, when kinase is inhibited, the donor and acceptor beads are not associated and the emission from the acceptor is reduced.
# (§2) AlphaScreen assays were done using compounds dissolved in DMSO to a concentration of 20 mM. The compounds were diluted accordingly to the desired final concentrations in each sample well, using 1:3 serial dilution for a total of 8 concentration points. Plates were prepared such that each kinase reaction is 20 μl in 1× kinase buffer, 5% DMSO and 10 μM ATP. After incubation of the kinase reaction for 1 hour at room temperature, 5 μl of donor beads in stop buffer (50 mM EDTA in 1× kinase buffer) was added, the sample was mixed and incubated for 20 minutes at room temperature before adding 5 μl of acceptor beads in stop buffer. The samples were incubated for 60 minutes at room temperature and the signal per well was read on AlphaQuest reader.
# FGFR1 = molecular target: T5, FGFR1 (Homo sapiens, UniProt P11362, C488A/C584S); experiment: AlphaScreen kinase assay, FGFR1; settings: read-out: IC50, activity toward kinase FGFR
# T5 construct: P1351.pET N6 BI-PTP FGFR A458-E765-X C488A, C584S; made in house; host or cells: E. coli (PTP1B co-expressed)
# T5 sequence (P11362 458-765 C488A/C584S): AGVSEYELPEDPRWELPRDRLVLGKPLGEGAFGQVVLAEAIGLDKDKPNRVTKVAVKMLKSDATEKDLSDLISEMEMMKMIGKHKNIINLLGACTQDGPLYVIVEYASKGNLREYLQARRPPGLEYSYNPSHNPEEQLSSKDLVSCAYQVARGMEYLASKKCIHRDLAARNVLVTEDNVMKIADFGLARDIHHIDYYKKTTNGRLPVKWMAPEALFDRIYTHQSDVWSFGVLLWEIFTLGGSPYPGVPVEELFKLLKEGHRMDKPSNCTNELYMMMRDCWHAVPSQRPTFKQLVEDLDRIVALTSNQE
# Flt1 = molecular target: T6, Flt1 (Homo sapiens, UniProt P17948); experiment: AlphaScreen kinase assay, Flt1; settings: read-out: IC50, activity toward kinase Flt1
# T6 construct: P1826.pETN6 BI-PTP FLT1 M799-D1165-X WT; His6 (N); made in house; host or cells: E. coli (PTP1B co-expressed)
# T6 sequence (P17948 with tags, fused parts or gaps): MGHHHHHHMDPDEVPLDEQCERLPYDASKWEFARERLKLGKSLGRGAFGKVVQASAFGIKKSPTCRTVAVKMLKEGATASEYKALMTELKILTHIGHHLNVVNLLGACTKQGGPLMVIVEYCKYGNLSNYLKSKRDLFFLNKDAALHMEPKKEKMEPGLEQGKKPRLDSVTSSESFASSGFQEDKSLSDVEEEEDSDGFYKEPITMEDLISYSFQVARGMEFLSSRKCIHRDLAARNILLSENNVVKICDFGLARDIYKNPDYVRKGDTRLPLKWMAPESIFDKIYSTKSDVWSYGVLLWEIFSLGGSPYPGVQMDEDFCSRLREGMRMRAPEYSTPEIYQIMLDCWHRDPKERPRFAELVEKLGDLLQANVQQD
# Fms = molecular target: T7, Fms (Homo sapiens, UniProt P07333); experiment: AlphaScreen kinase assay, Fms; settings: read-out: IC50, activity toward kinase Fms
# T7 construct: purchased Upstate Biotechnology
# T7 sequence (P07333 20-972): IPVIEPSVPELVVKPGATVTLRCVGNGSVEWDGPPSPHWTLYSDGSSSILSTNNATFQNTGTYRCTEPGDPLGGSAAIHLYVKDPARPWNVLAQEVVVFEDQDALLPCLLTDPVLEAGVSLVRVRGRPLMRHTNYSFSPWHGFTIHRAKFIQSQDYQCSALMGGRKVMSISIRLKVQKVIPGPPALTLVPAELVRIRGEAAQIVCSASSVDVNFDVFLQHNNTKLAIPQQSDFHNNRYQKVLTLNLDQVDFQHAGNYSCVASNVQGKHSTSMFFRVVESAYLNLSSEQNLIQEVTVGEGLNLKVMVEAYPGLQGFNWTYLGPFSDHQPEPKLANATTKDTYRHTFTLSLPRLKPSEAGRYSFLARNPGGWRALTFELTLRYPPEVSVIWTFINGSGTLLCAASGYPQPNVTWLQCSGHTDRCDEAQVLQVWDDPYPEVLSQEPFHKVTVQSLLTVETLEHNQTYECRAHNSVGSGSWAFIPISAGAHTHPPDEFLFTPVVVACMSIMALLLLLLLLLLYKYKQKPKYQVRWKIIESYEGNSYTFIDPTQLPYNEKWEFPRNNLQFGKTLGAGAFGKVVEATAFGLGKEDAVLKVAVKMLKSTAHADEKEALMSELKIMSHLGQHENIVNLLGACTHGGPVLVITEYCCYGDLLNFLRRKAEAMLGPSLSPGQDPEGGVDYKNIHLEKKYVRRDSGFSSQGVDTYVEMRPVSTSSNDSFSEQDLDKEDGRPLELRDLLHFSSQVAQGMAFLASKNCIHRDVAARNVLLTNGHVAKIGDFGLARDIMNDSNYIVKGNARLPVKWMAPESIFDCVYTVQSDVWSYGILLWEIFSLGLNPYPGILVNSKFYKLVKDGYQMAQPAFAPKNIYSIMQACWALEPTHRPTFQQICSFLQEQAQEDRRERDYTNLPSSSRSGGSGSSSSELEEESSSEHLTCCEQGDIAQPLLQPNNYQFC
# Jnk1 = molecular target: T8, Jnk1 (Homo sapiens, UniProt P45983); experiment: AlphaScreen kinase assay, Jnk1; settings: read-out: IC50, activity toward kinase Jnk1
# T8 construct: purchased Upstate Biotechnology
# T8 sequence (P45983 whole entry): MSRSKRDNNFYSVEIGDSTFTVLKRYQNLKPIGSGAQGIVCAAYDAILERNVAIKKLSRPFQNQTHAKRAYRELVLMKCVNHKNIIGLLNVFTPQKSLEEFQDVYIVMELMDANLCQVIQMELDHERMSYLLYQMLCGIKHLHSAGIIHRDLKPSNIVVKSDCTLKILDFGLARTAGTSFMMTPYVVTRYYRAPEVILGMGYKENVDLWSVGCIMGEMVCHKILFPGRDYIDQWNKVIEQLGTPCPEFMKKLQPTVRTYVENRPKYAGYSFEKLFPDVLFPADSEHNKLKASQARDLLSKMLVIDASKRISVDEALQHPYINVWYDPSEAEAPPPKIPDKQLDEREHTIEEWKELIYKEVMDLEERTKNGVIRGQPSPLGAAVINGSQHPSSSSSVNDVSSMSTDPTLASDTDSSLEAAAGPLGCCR
# Kit = molecular target: T9, Kit (Homo sapiens, UniProt P10721); experiment: AlphaScreen kinase assay, Kit; settings: read-out: IC50, activity toward kinase Kit
# T9 construct: P1332.N6 BI PTP KIT M552-K948-X COD; His6 (N); made in house; host or cells: E. coli (PTP1B co-expressed)
# T9 sequence (P10721 with tags, fused parts or gaps): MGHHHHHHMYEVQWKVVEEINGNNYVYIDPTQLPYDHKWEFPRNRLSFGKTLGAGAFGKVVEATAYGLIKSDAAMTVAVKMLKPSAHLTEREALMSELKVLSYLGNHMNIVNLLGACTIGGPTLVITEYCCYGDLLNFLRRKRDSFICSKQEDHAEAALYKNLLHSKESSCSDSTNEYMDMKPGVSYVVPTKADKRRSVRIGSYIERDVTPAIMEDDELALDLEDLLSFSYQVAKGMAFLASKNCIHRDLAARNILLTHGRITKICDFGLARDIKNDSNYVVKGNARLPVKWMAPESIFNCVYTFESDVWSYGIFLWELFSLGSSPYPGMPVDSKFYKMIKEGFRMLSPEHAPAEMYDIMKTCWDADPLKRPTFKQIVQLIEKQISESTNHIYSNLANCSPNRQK
# Src = molecular target: T10, Src (Homo sapiens, UniProt P12931); experiment: AlphaScreen kinase assay, Src; settings: read-out: IC50, activity toward kinase Src
# T10 construct: P1144. pET-N6 BI-PTP SRC V86-L536-X; made in house
# T10 sequence (P12931 with tags, fused parts or gaps): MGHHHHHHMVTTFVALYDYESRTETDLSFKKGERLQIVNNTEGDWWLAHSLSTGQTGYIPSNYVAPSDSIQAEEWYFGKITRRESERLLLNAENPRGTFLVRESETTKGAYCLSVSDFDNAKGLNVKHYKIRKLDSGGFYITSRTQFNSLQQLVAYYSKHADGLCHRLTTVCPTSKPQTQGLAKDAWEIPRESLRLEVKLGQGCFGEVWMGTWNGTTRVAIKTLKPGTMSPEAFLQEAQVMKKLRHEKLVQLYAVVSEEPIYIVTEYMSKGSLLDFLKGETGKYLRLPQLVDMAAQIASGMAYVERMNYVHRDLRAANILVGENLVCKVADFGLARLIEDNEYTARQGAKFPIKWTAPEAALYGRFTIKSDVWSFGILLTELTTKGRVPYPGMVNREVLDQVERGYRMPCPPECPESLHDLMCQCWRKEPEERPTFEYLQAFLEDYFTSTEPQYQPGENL
# Source text: as §1, §2
SMILES,IC50 (B-Raf V600E) [µM],IC50 (Stk6) [µM],IC50 (FGFR1) [µM],IC50 (Src) [µM],also measured
CC(C)CNc1ccc(C(O)c2c[nH]c3ncccc23)cn1 (stereo not drawn) [Compound P-0185],≤ 10,≤ 10,,,
Cc1ccsc1Cc1c[nH]c2ncccc12 [Compound P-0191],≤ 10,≤ 10,,,
"CCCS(=O)(=O)Nc1cccc(C(=O)c2c[nH]c3ncc(-c4cccnc4)cc23)c1F [Compound P-1251, Propane-1-sulfonic acid [2-fluoro-3-(5-pyridin-3-yl-1H-pyrrolo[2,3-b]pyridine-3-carbonyl)-phenyl]-amide]",≤ 10,,≤ 10,≤ 10,IC50 (B-Raf): ≤ 10 µM; IC50 (c-Raf-1): ≤ 10 µM; IC50 (Flt1): ≤ 10 µM; IC50 (Fms): ≤ 10 µM; IC50 (Jnk1): ≤ 10 µM; IC50 (Kit): ≤ 10 µM
"c1ccc(Nc2c[nH]c3ncccc23)cc1 [Compound P-0221, N-phenyl-1H-pyrrolo[2,3-b]pyridin-3-amine]",,≤ 10,,,
Cc1ccc(S(=O)(=O)Nc2ccc(Cc3c[nH]c4ncccc34)cc2)cc1 [Compound P-0426],,≤ 10,≤ 10,,
COC(=O)Nc1ccc(F)c(C(=O)c2c[nH]c3ncc(Br)cc23)c1F [Compound P-1448],≤ 10,,≤ 10,≤ 10,IC50 (c-Raf-1): ≤ 10 µM; IC50 (Fms): ≤ 10 µM
"CN(C)S(=O)(=O)Nc1ccc(F)c(C(=O)c2c[nH]c3ncc(Cl)cc23)c1F [Compound P-1258, Dimethylamine-1-sulfonic acid [3-(5-chloro-1H-pyrrolo[2,3-b]pyridine-3-carbonyl)-2,4-difluorophenyl]-amide]",≤ 10,,≤ 10,≤ 10,IC50 (B-Raf): ≤ 10 µM; IC50 (c-Raf-1): ≤ 10 µM
"CCCCS(=O)(=O)Nc1ccc(F)c(C(=O)c2c[nH]c3ncc(Cl)cc23)c1F [Compound P-1265, Butane-1-sulfonic acid [3-(5-chloro-1H-pyrrolo[2,3-b]pyridine-3-carbonyl)-2,4-difluoro-phenyl]-amide]",≤ 10,,≤ 10,≤ 10,IC50 (B-Raf): ≤ 10 µM; IC50 (c-Raf-1): ≤ 10 µM; IC50 (Fms): ≤ 10 µM
COc1cccc(-c2ccnc3[nH]cc(Sc4cccs4)c23)c1 [Compound P-0160],≤ 10,≤ 10,,,
O=C(c1ccc(Nc2cccc(OCc3ccccc3)c2)nc1)c1c[nH]c2ncccc12 [Compound P-0355],≤ 10,≤ 10,,,
COc1cccc(-c2cnc3[nH]cc(Sc4cccs4)c3c2)c1 [Compound P-0417],,≤ 10,,,
CCCC(=O)Nc1ccc(F)c(C(O)c2c[nH]c3ncc(-c4cccnc4)cc23)c1F (stereo not drawn) [Compound P-1366],≤ 10,,≤ 10,≤ 10,IC50 (Flt1): ≤ 10 µM; IC50 (Fms): ≤ 10 µM; IC50 (Jnk1): ≤ 10 µM; IC50 (Kit): ≤ 10 µM
O=C(c1cccc(F)c1)c1ccc(-c2cnc3[nH]ccc3c2)s1 [Compound P-0235],,≤ 10,,,IC50 (Kit): ≤ 10 µM
"COc1cccc(C(=O)c2c[nH]c3ncc(-c4ccccc4)cc23)c1F [Compound P-1338, (2-Fluoro-3-methoxy-phenyl)-(5-phenyl-1H-pyrrolo[2,3-b]pyridin-3-yl)-methanone]",,,≤ 10,≤ 10,IC50 (B-Raf): ≤ 10 µM; IC50 (c-Raf-1): ≤ 10 µM; IC50 (Fms): ≤ 10 µM; IC50 (Jnk1): ≤ 10 µM; IC50 (Kit): ≤ 10 µM
CN(c1ccccc1)c1ccnc2[nH]ccc12 [Compound P-0118],≤ 10,≤ 10,,,
O=C1c2ccccc2C(=O)N1Cc1ccc(-c2cnc3[nH]ccc3c2)cc1 [Compound P-0281],,≤ 10,,,
Cc1cccc(N(C)c2ccnc3[nH]ccc23)c1 [Compound P-0155],,≤ 10,,,
FC(F)(F)c1cccc(-c2ccnc3[nH]cc(Sc4ccccn4)c23)c1 [Compound P-0290],,≤ 10,,,

SMILES,IC50 (B-Raf V600E) [µM],IC50 (Stk6) [µM],IC50 (FGFR1) [µM],IC50 (Src) [µM],also measured
COc1cccc(NC(=S)N2CCC(C(=O)c3c[nH]c4ncccc34)CC2)c1 [Compound P-0208],≤ 10,≤ 10,,,
O=S(=O)(Nc1ccc(F)c(Cc2c[nH]c3ncc(-c4cccnc4)cc23)c1F)c1ccccc1 [Compound P-1398],≤ 10,,≤ 10,≤ 10,IC50 (c-Raf-1): ≤ 10 µM
c1cc2cc(-c3ccoc3)cnc2[nH]1 [Compound P-0372],,≤ 10,,,
Brc1c[nH]c2ncccc12 [Compound P-0201],,≤ 10,,,
Cc1ccccc1-c1ccnc2[nH]cc(Sc3cccs3)c12 [Compound P-0441],≤ 10,≤ 10,,,
COc1ccccc1Cc1c[nH]c2ncccc12 [Compound P-0406],,≤ 10,,,
N#Cc1ccnc2[nH]cc(Sc3cccs3)c12 [Compound P-0370],,≤ 10,,,
"CCCS(=O)(=O)Nc1ccc(F)c(C(=O)c2c[nH]c3ncc(OCCN(CC)CC)cc23)c1F [Compound P-1254, Propane-1-sulfonic acid {3-[5-(2-diethylamino-ethoxy)-1H-pyrrolo[2,3-b]pyridine-3-carbonyl]-2,4-difluoro-phenyl}-amide]",≤ 10,,≤ 10,≤ 10,IC50 (B-Raf): ≤ 10 µM; IC50 (c-Raf-1): ≤ 10 µM; IC50 (Kit): ≤ 10 µM
"CCCS(=O)(=O)Nc1ccc(F)c(C(=O)c2c[nH]c3ncc(F)cc23)c1F [Compound P-0907, Propane-1-sulfonic acid [2,4-difluoro-3-(5-fluoro-1H-pyrrolo[2,3-b]pyridine-3-carbonyl)-phenyl]-amide]",≤ 10,,≤ 10,≤ 10,IC50 (B-Raf): ≤ 10 µM; IC50 (c-Raf-1): ≤ 10 µM; IC50 (Kit): ≤ 10 µM
CC(C)CNc1ccc(C(=O)c2c[nH]c3ncccc23)cn1 [Compound P-0251],,≤ 10,,,
c1coc(-c2ccnc3[nH]ccc23)c1 [Compound P-0445],,≤ 10,,,
O=C(c1ccc(NCC2CCCCC2)nc1)c1c[nH]c2ncccc12 [Compound P-0471],,≤ 10,,,
O=C(c1c[nH]c2ncccc12)C1CCCCC1 [Compound P-0407],,≤ 10,,,
Clc1ccnc2[nH]cc(Sc3cccs3)c12 [Compound P-0489],,≤ 10,≤ 10,,
c1csc(-c2c[nH]c3ncccc23)c1 [Compound P-0253],,≤ 10,,,IC50 (Kit): ≤ 10 µM
"CCCS(=O)(=O)Nc1ccc(F)c(C(=O)c2c[nH]c3ncc(-c4ccc(OC)cc4)cc23)c1F [Compound P-0877, Propane-1-sulfonic acid {2,4-difluoro-3-[5-(4-methoxy-phenyl)-1H-pyrrolo[2,3-b]pyridine-3-carbonyl]-phenyl}-amide]",≤ 10,,≤ 10,≤ 10,IC50 (B-Raf): ≤ 10 µM; IC50 (c-Raf-1): ≤ 10 µM; IC50 (Kit): ≤ 10 µM
Cn1nc(C(C)(C)C)cc1C(=O)c1c[nH]c2nccc(-c3cccc(/C=C/C(=O)O)c3)c12 [Compound P-0546],,≤ 10,,,
"CCCS(=O)(=O)Nc1ccc(F)c(C(=O)c2c[nH]c3ncc(-c4cccc(N(C)C)c4)cc23)c1F [Compound P-0876, Propane-1-sulfonic acid {3-[5-(3-dimethylamino-phenyl)-1H-pyrrolo[2,3-b]pyridine-3-carbonyl]-2,4-difluoro-phenyl}-amide]",≤ 10,,≤ 10,≤ 10,IC50 (B-Raf): ≤ 10 µM; IC50 (c-Raf-1): ≤ 10 µM; IC50 (Fms): ≤ 10 µM; IC50 (Jnk1): ≤ 10 µM; IC50 (Kit): ≤ 10 µM
